# Results taken from patent US5041567A, “Antibacterial monic acid derivatives” (Beecham Group plc, priority 1982, dated 1991).
# Like-named read-outs stand apart in the source and are kept apart here.
# What was measured:
# [1] = test system: Haemophilus influenzae Q1; experiment: MIC against human bacteria in vitro; assay type: cell-based
# M. gallisepticum S6 = experiment: MIC against mycoplasma in vitro; assay type: cell-based; details: Mycoplasmoides gallisepticum, 144 h; M. gallisepticum S6; 6 days, 37° C.; read-out: MIC
# M. bovis NCTC 10131 = experiment: microbe, parasite or virus in culture; assay type: cell-based; details: NCTC10131, 144 h
# [2] = test system: Strep. suis (group D) SPS11; experiment: MIC against veterinary bacteria in vitro; details: Streptococcus suis, 18 h
# Experimental: (§1) The activity of the compounds of the Examples against various veterinarily important bacteria, was assayed in vitro using two-fold serial dilutions in Diagnostic Sensitivity Test Agar inoculated with 10^4 organisms.
# Bord. bronchiseptica B09 = experiment: MIC against veterinary bacteria in vitro; details: Bordetella bronchiseptica, B09, 18 h
# Experimental: as §1
# M. dispar NCTC 10125 = experiment: MIC against mycoplasma in vitro; assay type: cell-based; details: 144 h
# P. mirabilis 889 = experiment: MIC against human bacteria in vitro; assay type: cell-based
# [3] = test system: M. suipneumoniae PW/C/210; experiment: MIC against mycoplasma in vitro; assay type: cell-based; details: Mesomycoplasma hyopneumoniae, 144 h
# [4] = test system: M. hyosynoviae ATCC 25591; experiment: MIC against mycoplasma in vitro; assay type: cell-based; details: 144 h
# [5] = test system: M. suipneumoniae J2206/183^b; experiment: MIC against mycoplasma in vitro; assay type: cell-based; details: Mesomycoplasma hyopneumoniae, 144 h
# M. pneumoniae ATCC 15492 = experiment: MIC against mycoplasma in vitro; assay type: cell-based; details: Mycoplasmoides pneumoniae, ATCC15492, 144 h
# Staph. aureus Oxford = experiment: MIC against human bacteria in vitro; assay type: cell-based; details: Staphylococcus aureus; Staph. aureus Oxford; 5% chocolated horse blood agar, 18 hours; read-out: MIC
# [6] = test system: Pasteurella multocida 1633; experiment: MIC against human bacteria in vitro; assay type: cell-based
# E. coli E1 = experiment: MIC against veterinary bacteria in vitro; details: Escherichia coli, E1, 18 h
# Experimental: as §1
# Bord. bronchiseptica B08 = experiment: MIC against veterinary bacteria in vitro; details: Bordetella bronchiseptica, B08, 18 h
# Experimental: as §1
# [7] = test system: M. suipneumoniae NCTC 10110; experiment: MIC against mycoplasma in vitro; assay type: cell-based; details: Mesomycoplasma hyopneumoniae, NCTC10110, 144 h
# E. coli NCTC 10418 = experiment: MIC against veterinary bacteria in vitro; details: Escherichia coli, NCTC10418, 18 h
# Experimental: as §1
# Past. multocida PA1 = experiment: MIC against veterinary bacteria in vitro; details: Pasteurella multocida, PA1, 18 h
# Experimental: as §1
# Past. haemolytica PA5 = experiment: MIC against veterinary bacteria in vitro; details: Mannheimia haemolytica, PA5, 18 h
# Experimental: as §1
# [8] = test system: Staph. aureus B4 (pen. resistant); experiment: MIC against veterinary bacteria in vitro; details: Staphylococcus aureus, 18 h
# Experimental: as §1
# Strep. agalactiae SPA1 = experiment: MIC against veterinary bacteria in vitro; details: Streptococcus agalactiae, SPA1, 18 h
# Experimental: as §1
# M. suipneumoniae JF 435 = experiment: MIC against mycoplasma in vitro; assay type: cell-based; details: Mesomycoplasma hyopneumoniae, JF435, 144 h
# M. suipneumoniae UCD 1 = experiment: MIC against mycoplasma in vitro; assay type: cell-based; details: Mesomycoplasma hyopneumoniae, UCD1, 144 h
# [9] = Haemophilus influenzae Q1, 5% chocolated horse blood agar, 18 hours, read-out: MIC
# [10] = M. dispar NCTC 10125, 6 days, 37° C., read-out: MIC
# [11] = Proteus mirabilis, P. mirabilis 889, 5% chocolated horse blood agar, 18 hours, read-out: MIC
# [12] = M. suipneumoniae J2206/183^b, 6 days, 37° C., read-out: MIC
# [13] = M. pneumoniae ATCC 15492, 6 days, 37° C., read-out: MIC
# [14] = Pasteurella multocida 1633, 5% chocolated horse blood agar, 18 hours, read-out: MIC
# [15] = M. suipneumoniae NCTC 10110, 6 days, 37° C., read-out: MIC
# [16] = M. suipneumoniae JF 435, 6 days, 37° C., read-out: MIC
# [17] = M. suipneumoniae UCD 1, 6 days, 37° C., read-out: MIC
# [18] = M. suipneumoniae PW/C/210, 6 days, 37° C., read-out: MIC
# [19] = M. hyosynoviae ATCC 25591, 6 days, 37° C., read-out: MIC
# [20] = Pasteurella multocida, 1633, 18 h
Structure (SMILES),"MIC [1, 9]",MIC (M. gallisepticum S6),MIC (M. bovis NCTC 10131),MIC [2],MIC (Bord. bronchiseptica B09),MIC (M. dispar NCTC 10125; [10]),"MIC [5, 12]",MIC (M. pneumoniae ATCC 15492; [13]),MIC (Staph. aureus Oxford),MIC (E. coli E1),MIC (Bord. bronchiseptica B08),"MIC [7, 15]",MIC (E. coli NCTC 10418),MIC (Past. multocida PA1),MIC (Past. haemolytica PA5),MIC [8],MIC (Strep. agalactiae SPA1),MIC (M. suipneumoniae JF 435; [16]),MIC (M. suipneumoniae UCD 1; [17]),"MIC [3, 18]",other results
"C/C(=C\c1ncc(-c2ccccc2)o1)C[C@@H]1OC[C@H](C[C@@H]2O[C@H]2[C@@H](C)[C@H](C)O)[C@@H](O)[C@H]1O [Example 1, 2-(1-normon-2-yl)-5-phenyloxazole A]",1 µg/mL,2.5 µg/mL,≤ 0.01 µg/mL,20 µg/mL,20 µg/mL,0.1 µg/mL,1 µg/mL,2.5 µg/mL,5 µg/mL,> 80 µg/mL,80 µg/mL,1 µg/mL,> 80 µg/mL,10 µg/mL,80 µg/mL,1.25 µg/mL,1.25 µg/mL,1 µg/mL,1 µg/mL,–,"MIC (P. mirabilis 889; [11]): > 100 µg/mL; MIC [3]: 0.5 µg/mL; MIC [4]: 0.5 µg/mL; MIC [6, 14]: 10 µg/mL"
"C/C(=C/c1ncc(-c2ccccc2)o1)C[C@@H]1OC[C@H](C[C@@H]2O[C@H]2[C@@H](C)[C@H](C)O)[C@@H](O)[C@H]1O [Example 2, 2-{3-[5-(2,3-epoxy-5-hydroxy-4-methylhexyl)-3,4-dihydroxytetrahydropyran-2-yl]-2-methylprop-1(Z)-enyl}-5-phenyloxazole]",12.5 µg/mL,> 10 µg/mL,0.25 µg/mL,> 80 µg/mL,> 80 µg/mL,2.5 µg/mL,10 µg/mL,–,25 µg/mL,> 80 µg/mL,> 80 µg/mL,10 µg/mL,> 80 µg/mL,> 80 µg/mL,> 80 µg/mL,20 µg/mL,20 µg/mL,> 10 µg/mL,10 µg/mL,5 µg/mL,"MIC (P. mirabilis 889; Proteus mirabilis, 889, 18 h): > 50 µg/mL; MIC [4, 19]: 5 µg/mL; MIC [6, 20]: > 50 µg/mL"
"C/C(=C\c1ncc(-c2ccc([N+](=O)[O-])cc2)o1)C[C@@H]1OC[C@H](C[C@@H]2O[C@H]2[C@@H](C)[C@H](C)O)[C@@H](O)[C@H]1O [Example 3, 5-p-nitro-phenyl-2-(1-normon-2-yl)-oxazole A]",0.1 µg/mL,0.5 µg/mL,0.025 µg/mL,2.5 µg/mL,5 µg/mL,0.05 µg/mL,0.25 µg/mL,0.5 µg/mL,0.2 µg/mL,> 80 µg/mL,40 µg/mL,0.25 µg/mL,> 80 µg/mL,5 µg/mL,10 µg/mL,0.312 µg/mL,1.25 µg/mL,0.25 µg/mL,0.25 µg/mL,0.1 µg/mL,"MIC (P. mirabilis 889; Proteus mirabilis, 889, 18 h): 50 µg/mL; MIC [4, 19]: 0.25 µg/mL; MIC [6, 14]: 0.5 µg/mL"
"C/C(=C\c1ncc(-c2cccc(C#N)c2)o1)C[C@@H]1OC[C@H](C[C@@H]2O[C@H]2[C@@H](C)[C@H](C)O)[C@@H](O)[C@H]1O [Example 5, 5-m-cyanophenyl-2-(1-normon-2-yl)oxazole A]",1.2 µg/mL,0.5 µg/mL,≤ 0.01 µg/mL,10 µg/mL,40 µg/mL,–,0.1 µg/mL,–,1.2 µg/mL,> 80 µg/mL,80 µg/mL,–,> 80 µg/mL,5 µg/mL,40 µg/mL,1.25 µg/mL,0.625 µg/mL,0.1 µg/mL,–,0.05 µg/mL,"MIC (M. dispar NCTC 10125): 0.025 µg/mL; MIC (P. mirabilis 889; [11]): > 50 µg/mL; MIC [4]: 0.25 µg/mL; MIC (M. pneumoniae ATCC 15492): 0.25 µg/mL; MIC [6, 20]: 5 µg/mL; MIC [7]: 0.1 µg/mL; MIC (M. suipneumoniae UCD 1): 0.1 µg/mL"
"C/C(=C\c1ncc(-c2cccc([N+](=O)[O-])c2)o1)C[C@@H]1OC[C@H](C[C@@H]2O[C@H]2[C@@H](C)[C@H](C)O)[C@@H](O)[C@H]1O [Example 6, 5-m-nitrophenyl-2-(1-normon-2-yl)oxazole A]",2 µg/mL,1 µg/mL,0.025 µg/mL,10 µg/mL,20 µg/mL,–,–,1 µg/mL,8 µg/mL,> 80 µg/mL,80 µg/mL,–,> 80 µg/mL,10 µg/mL,80 µg/mL,–,2.5 µg/mL,–,–,–,"MIC (M. dispar NCTC 10125): 0.025 µg/mL; MIC (P. mirabilis 889; [11]): > 128 µg/mL; MIC [3]: 0.025 µg/mL; MIC [4, 19]: 0.5 µg/mL; MIC [5]: 0.05 µg/mL; MIC [6, 14]: 16 µg/mL; MIC [7]: 0.05 µg/mL; MIC (M. suipneumoniae JF 435): 0.05 µg/mL; MIC (M. suipneumoniae UCD 1): 0.05 µg/mL"
"COC(=O)CCCCCCCc1cnc(/C=C(\C)C[C@@H]2OC[C@H](C[C@@H]3O[C@H]3[C@@H](C)[C@H](C)O)[C@@H](O)[C@H]2O)o1 [Example 7, 5-(7-Methoxycarbonylheptyl)-2-(1-normon-2-yl)oxazole A]",–,> 10 µg/mL,0.1 µg/mL,80 µg/mL,40 µg/mL,2.5 µg/mL,> 10 µg/mL,> 10 µg/mL,–,> 80 µg/mL,40 µg/mL,10 µg/mL,> 80 µg/mL,40 µg/mL,> 80 µg/mL,5 µg/mL,5 µg/mL,> 10 µg/mL,> 10 µg/mL,10 µg/mL,"MIC ([1]; Haemophilus influenzae, Q1, 18 h): 0.5 µg/mL; MIC (P. mirabilis 889; Proteus mirabilis, 889, 18 h): > 100 µg/mL; MIC [4, 19]: 5 µg/mL; MIC [6, 20]: 2.5 µg/mL"
